# Results: the supplement of paper PMC11061612
# Tests used:
# [1] = system: KS-1 (Glioblastoma); experiment: combination Emax (second highest fraction inhibited in the dose matrix, 72 h); higher = more inhibition; extreme values may be limits of the assay
# Summary of the method: (§1)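 Bliss excess equals the observed combination effect minus the expected value EA + EB − EA·EB, where EA and EB are the effects of each agent alone. Combination Emax is the second-highest inhibition within the matrix. Inhibition was scaled from CellTiter-Glo 2.0 luminescence, with 0 set by vehicle wells and 1 by blank wells, after 72 hours of two-drug dosing of cells plated in 1536-well plates.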
# [2] = system: OE21 (Esophageal Squamous Cell Carcinoma); experiment: as above
# Summary of the method: as §1
# [3] = system: HH (T-Cell Non-Hodgkin's Lymphoma); experiment: as above
# Summary of the method: as §1
# [4] = system: LCLC-97TM1 (Non-Small Cell Lung Carcinoma); experiment: as above
# Summary of the method: as §1
# [5] = system: HeLa (Cervical Carcinoma); experiment: Bliss excess, mean over the matrix (fraction); higher = more synergy
# Summary of the method: as §1
# [6] = system: A673 (Ewing's Sarcoma); experiment: as above
# Summary of the method: as §1
# [7] = system: KS-1 (Glioblastoma); experiment: as above
# Summary of the method: as §1
# [8] = system: HuH-7 (Hepatocellular Carcinoma); experiment: as above
# Summary of the method: as §1
# [9] = system: NCI-H1568 (Lung Adenocarcinoma); experiment: as above
# Summary of the method: as §1
# [10] = system: Detroit562 (Head and Neck Carcinoma); experiment: as above
# Summary of the method: as §1
# [11] = system: SW1573 (Lung Adenocarcinoma); experiment: as above
# Summary of the method: as §1
# [12] = system: KMRC-20 (Kidney Carcinoma); experiment: as above
# Summary of the method: as §1
# [13] = system: KYAE-1 (Esophageal Adenocarcinoma); experiment: as above
# Summary of the method: as §1
# [14] = system: BE-13 (T-Lymphoblastic Leukemia); experiment: as above
# Summary of the method: as §1
# [15] = system: BPH-1 (Non-Cancerous); experiment: as above
# Summary of the method: as §1
# [16] = system: LCLC-97TM1 (Non-Small Cell Lung Carcinoma); experiment: as above
# Summary of the method: as §1
# [17] = system: SNU-16 (Gastric Carcinoma); experiment: as above
# Summary of the method: as §1
# [18] = system: NCI-H2722 (Mesothelioma); experiment: as above
# Summary of the method: as §1
# [19] = system: LS-123 (Colorectal Carcinoma); experiment: combination Emax (second highest fraction inhibited in the dose matrix, 72 h); higher = more inhibition; extreme values may be limits of the assay
# Summary of the method: as §1
# [20] = system: CAL-72 (Osteosarcoma); experiment: Bliss excess, mean over the matrix (fraction); higher = more synergy
# Summary of the method: as §1
SMILES,combination Emax [1],combination Emax [2],combination Emax [3],combination Emax [4],Bliss excess [5],Bliss excess [6],Bliss excess [7],Bliss excess [8],Bliss excess [9],Bliss excess [10],Bliss excess [11],Bliss excess [12],Bliss excess [13],Bliss excess [14],Bliss excess [15],Bliss excess [16],Bliss excess [17],Bliss excess [18],combination Emax [19],Bliss excess [20]
"CN(CCO)CC[C@H](CSc1ccccc1)Nc1ccc(S(=O)(=O)NC(=O)c2ccc(N3CCC([C@@H](O)c4ccccc4-c4ccc(Cl)cc4)CC3)cc2)cc1S(=O)(=O)C(F)(F)F [AZD4320] + C[C@@H](Nc1cc(F)cc(F)c1)c1cc(C(=O)N(C)C)cc2c(=O)cc(N3CCOCC3)oc12 [AZD8186] (first compound max 1 µM, 7x7, partner max 3 µM)",0.486,0.216,0.455,0.343,0.0156,0.0149,-0.0166,0.0262,-0.0013,0.0261,-0.0169,0.0459,0.011,-0.0065,-0.0541,-0.014,0.0286,-0.0422,–,–
"O=C(c1cc(Cc2n[nH]c(=O)c3ccccc23)ccc1F)N1CCN(C(=O)C2CC2)CC1 [Olaparib] + Cc1c2c(nn1C)CSCc1cc(n(C)n1)CSc1cc(c3ccccc3c1)OCCCc1c(C(=O)O)n(C)c3c-2c(Cl)ccc13 [AZD5991] (first compound max 10 µM, 7x7, partner max 1 µM)",0.0895,–,0.809,–,–,-0.0566,-0.0463,–,–,–,–,–,0.0031,0.0142,–,–,0.0603,–,0.127,-0.0242
"Cc1nc(-c2cn3c(n2)-c2ccc(-c4cnn(C(C)(C)C(N)=O)c4)cc2OCC3)n(C(C)C)n1 [Taselisib] + O=C(Nc1ccc2[nH]nc(-c3ccncc3)c2c1)[C@@H]1CCN(CC(=O)N2CCN(c3ccc(-c4ncccn4)cc3)CC2)C1 [SCH772984] (first compound max 10 µM, 7x7, partner max 5 µM)",0.677,–,0.393,–,–,0.131,0.0097,–,–,–,–,–,-0.0018,-0.0347,–,–,0.123,–,0.889,-0.0562
"C[C@@H](Oc1cc(-c2cnn(C3CCNCC3)c2)cnc1N)c1c(Cl)ccc(F)c1Cl [Crizotinib] + Cn1cnc2c(F)c(Nc3ccc(Br)cc3Cl)c(C(=O)NOCCO)cc21 [Selumetinib] (first compound max 10 µM, 7x7, partner max 10 µM)",0.646,–,0.0931,–,–,-0.0206,0.0483,–,–,–,–,–,-0.0153,-0.0251,–,–,-0.0073,–,0.62,-0.0411
"C=CCn1c(=O)c2cnc(Nc3ccc(N4CCN(C)CC4)cc3)nc2n1-c1cccc(C(C)(C)O)n1 [AZD1775] + CCc1c2c(nc3ccc(O)cc13)-c1cc3c(c(=O)n1C2)COC(=O)[C@]3(O)CC [SN-38] (first compound max 1 µM, partner max 0.3 µM)",0.52,–,0.567,–,–,-0.0188,-0.0389,–,–,–,–,–,-0.0013,-0.0186,–,–,-0.0475,–,0.828,0.017
"O=C(c1cc(Cc2n[nH]c(=O)c3ccccc23)ccc1F)N1CCN(C(=O)C2CC2)CC1 [Olaparib] + CN(CC[C@H](CSC1=CC=CC=C1)NC2=C(C=C(C=C2)S(=O)(=O)NC(=O)C3=CC=C(C=C3)N4CCC(CC4)[C@H](C5=CC=CC=C5C6=CC=C(C=C6)Cl)O)S(=O)(=O)C(F)(F)F)CCO [AZD4320] (first compound max 10 µM, 7x7, partner max 1 µM)",0.2,–,0.21,–,–,0.0265,-0.041,–,–,–,–,–,0.0363,0.0096,–,–,0.0432,–,0.512,-0.0332
"C[C@@H](Nc1cc(F)cc(F)c1)c1cc(C(=O)N(C)C)cc2c(=O)cc(N3CCOCC3)oc12 [AZD8186] + CC(=O)c1c(C)c2cnc(Nc3ccc(N4CCNCC4)cn3)nc2n(C2CCCC2)c1=O [Palbociclib] (first compound max 10 µM, 7x7, partner max 10 µM)",0.428,–,0.413,–,–,0.0743,0.0069,–,–,–,–,–,-0.0036,-0.0165,–,–,0.0891,–,0.478,0.0075
"CS(=O)(=O)CCNCc1ccc(-c2ccc3ncnc(Nc4ccc(OCc5cccc(F)c5)c(Cl)c4)c3c2)o1 [Lapatinib] + NC1(c2ccc(-c3nc4ccn5c(=O)[nH]nc5c4cc3-c3ccccc3)cc2)CCC1 [MK-2206] (first compound max 10 µM, 7x7, partner max 10 µM)",0.403,–,0.451,–,–,-0.064,-0.0185,–,–,–,–,–,0.0176,-0.0842,–,–,0.0758,–,0.629,0.0288
"C[C@@H]1COCCN1c1cc(C2([S@](C)(=N)=O)CC2)nc(-c2ccnc3[nH]ccc23)n1 [AZD6738] + C1CC(C1)(C(=O)[O-])C(=O)[O-].N.N.[Pt+2] [Carboplatin] (first compound max 10 µM, 7x7, partner max 10 µM)",0.431,–,0.22,–,–,0.0216,-0.0536,–,–,–,–,–,-0.015,-0.0436,–,–,0.0045,–,0.626,-0.063
"CCc1c2c(nc3ccc(O)cc13)-c1cc3c(c(=O)n1C2)COC(=O)[C@]3(O)CC [SN-38] + O=C(c1cc(Cc2n[nH]c(=O)c3ccccc23)ccc1F)N1CCN(C(=O)C2CC2)CC1 [Olaparib] (first compound max 0.3 µM, 7x7, partner max 10 µM)",0.556,0.669,0.103,–,0.0232,0.0875,0.0068,–,–,–,–,–,-0.0184,0.0503,0.0501,–,0.0005,0.0188,0.55,0.113
"Cc1c2c(nn1C)CSCc1cc(n(C)n1)CSc1cc(c3ccccc3c1)OCCCc1c(C(=O)O)n(C)c3c-2c(Cl)ccc13 [AZD5991] + Nc1ccn([C@@H]2O[C@H](CO)[C@@H](O)C2(F)F)c(=O)n1 [Gemcitabine] (first compound max 1 µM, 7x7, partner max 0.3 µM)",0.288,–,0.879,–,–,-0.021,-0.0354,–,–,–,–,–,0.0034,-0.0088,–,–,0.0183,–,0.404,0.0305
"CN(CCO)CC[C@H](CSc1ccccc1)Nc1ccc(S(=O)(=O)NC(=O)c2ccc(N3CCC([C@@H](O)c4ccccc4-c4ccc(Cl)cc4)CC3)cc2)cc1S(=O)(=O)C(F)(F)F [AZD4320] + CS(=O)(=O)CCNCc1ccc(-c2ccc3ncnc(Nc4ccc(OCc5cccc(F)c5)c(Cl)c4)c3c2)o1 [Lapatinib] (first compound max 1 µM, 7x7, partner max 10 µM)",0.475,–,0.316,–,–,0.0505,0.0137,–,–,–,–,–,0.0699,0.0292,–,–,0.0399,–,–,-0.0174
"C[C@@H](Oc1cc(-c2cnn(C3CCNCC3)c2)cnc1N)c1c(Cl)ccc(F)c1Cl [Crizotinib] + CC1=C(C(=CC=C1)Cl)NC(=O)C2=CN=C(S2)NC3=CC(=NC(=N3)C)N4CCN(CC4)CCO [Dasatinib] (first compound max 10 µM, 7x7, partner max 2 µM)",0.848,–,0.203,–,–,-0.0281,0.0499,–,–,–,–,–,0,0.0321,–,–,0.0279,–,0.967,0.0078
"CS(=O)(=O)CCNCc1ccc(-c2ccc3ncnc(Nc4ccc(OCc5cccc(F)c5)c(Cl)c4)c3c2)o1 [Lapatinib] + Cn1cnc2c(F)c(Nc3ccc(Br)cc3Cl)c(C(=O)NOCCO)cc21 [Selumetinib] (first compound max 10 µM, 7x7, partner max 10 µM)",0.342,–,0.211,–,–,-0.039,-0.0387,–,–,–,–,–,0.0206,-0.0253,–,–,-0.0169,–,0.677,-0.0254
"CC1(C)CCC(CN2CCN(c3ccc(C(=O)NS(=O)(=O)c4ccc(NCC5CCOCC5)c([N+](=O)[O-])c4)c(Oc4cnc5[nH]ccc5c4)c3)CC2)=C(c2ccc(Cl)cc2)C1 [Venetoclax] + CS(=O)(=O)CCNCc1ccc(-c2ccc3ncnc(Nc4ccc(OCc5cccc(F)c5)c(Cl)c4)c3c2)o1 [Lapatinib] (first compound max 1 µM, 7x7, partner max 10 µM)",0.089,–,0.129,–,–,-0.0426,-0.0411,–,–,–,–,–,0.0085,-0.0101,–,–,0.0168,–,0.267,-0.0527
"O=C(c1cc(Cc2n[nH]c(=O)c3ccccc23)ccc1F)N1CCN(C(=O)C2CC2)CC1 [Olaparib] + COc1nnc2ccc(N3CCC(c4ccc(OCCN5CCN(C)C(=O)[C@H]5C)cc4)CC3)nn12 [AZD5153] (first compound max 10 µM, 7x7, partner max 1 µM)",0.582,–,0.382,–,–,-0.077,-0.0205,–,–,–,–,–,-0.0202,-0.0681,–,–,-0.0066,–,0.359,-0.0056
"Cc1c2c(nn1C)CSCc1cc(n(C)n1)CSc1cc(c3ccccc3c1)OCCCc1c(C(=O)O)n(C)c3c-2c(Cl)ccc13 [AZD5991] + CS(=O)(=O)CCNCc1ccc(-c2ccc3ncnc(Nc4ccc(OCc5cccc(F)c5)c(Cl)c4)c3c2)o1 [Lapatinib] (first compound max 1 µM, 7x7, partner max 10 µM)",0.147,–,0.868,–,–,0.0006,-0.0277,–,–,–,–,–,0.0569,0.0363,–,–,-0.0003,–,0.394,0.0088
"Cc1c2c(nn1C)CSCc1cc(n(C)n1)CSc1cc(c3ccccc3c1)OCCCc1c(C(=O)O)n(C)c3c-2c(Cl)ccc13 [AZD5991] + CC(=O)O[C@H]1C(=O)[C@@]2(C)[C@H]([C@H](OC(=O)c3ccccc3)[C@]3(O)C[C@H](OC(=O)[C@H](O)[C@@H](NC(=O)c4ccccc4)c4ccccc4)C(C)=C1C3(C)C)[C@]1(OC(C)=O)CO[C@@H]1C[C@@H]2O [Paclitaxel] (first compound max 1 µM, 7x7, partner max 3 µM)",0.582,–,0.87,–,–,0.0296,-0.0057,–,–,–,–,–,0.0015,-0.0476,–,–,0.0119,–,0.463,-0.0853
